Reference: US8551984B2, “Aminopyrimidines as SYK inhibitors” (Merck Sharp & Dohme Corp., priority 2009, dated 2013)

Target: recombinant human SYK (GST-hSYK fusion protein) (Homo sapiens, UniProt P43405)
Experiment: biochemical
[1] = rhSYK Activity (IC50), recombinant human GST-SYK 5 pM, ATP 25 μM, biotinylated substrate peptide 250 nM, HTRF, 10-dose titration

Source text: Homogeneous Time-Resolved Fluorescence (HTRF) Assay for the Recombinant Human SYK Enzyme:

Question: For `Cc1cc(Nc2nccc(OCCc3cnn(C)c3)n2)cc(-c2cnc(C3(O)CCC3)s2)c1` [Example 108A-8], which IC50 (rhSYK Activity, Table 108A) is on record?
Answer: < 100 nM

Question: `Cc1cc(Nc2nccc(C(F)(F)F)n2)cc(-c2cnc(C3(O)CCCN(C(=O)CN4CCCC4=O)CC3)s2)c1` (stereo not drawn) [Example 54D-91] was tested. Which IC50 (rhSYK Activity, Table 54D) did it give?
Answer: < 100 nM

Question: For `CCC(=O)N1CCCC(O)(c2ncc(-c3cc(C)cc(Nc4nccc(C(F)(F)F)n4)c3)s2)CC1` (stereo not drawn) [Example 54D-5], which IC50 (rhSYK Activity, Table 54D) is on record?
Answer: < 100 nM

Question: With `COc1nc(Nc2cc(C)cc(-c3cnc([C@@]4(O)CC[C@H](C(=O)O)[C@H](C)C4)s3)c2)ncc1Cl` [Example 113A-36] as the molecule, how does the IC50 (rhSYK Activity, Table 113A) read?
Answer: < 100 nM

Question: For `Cc1cc(Nc2nccc(C(F)(F)F)n2)cc(-c2cnc(C3(NS(=O)(=O)CF)CCC3)s2)c1` [Example 61B-3], which IC50 (rhSYK Activity, Table 61B) is on record?
Answer: < 100 nM

Question: Which IC50 (rhSYK Activity, table of Examples 19-x) does the source give for `NC(=O)Nc1cc(Nc2nccc(C(F)(F)F)n2)cc(-c2cnc(C3(O)CCC3)s2)c1` [Example 19-2] here?
Answer: < 100 nM

Question: `Cc1cc(Nc2nccc(C(F)(F)F)n2)cc(-c2cnc(C3(O)CCCN(C(=O)Cn4cncn4)CC3)s2)c1` (stereo not drawn) [Example 54D-49] was tested. Which IC50 (rhSYK Activity, Table 54D) did it give?
Answer: < 100 nM

Question: Which IC50 [1] does the source give for `Cc1cc(Nc2nccc(Cl)n2)cc(-c2cnc(C(C)(O)C(F)(F)F)s2)c1` (stereo not drawn) [Example 98, 2-(5-{3-[(4-chloropyrimidin-2-yl)amino]-5-methylphenyl}-1,3-thiazol-2-yl)-1,1,1-trifluoropropan-2-ol] here?
Answer: < 100 nM

Question: How did the IC50 (rhSYK Activity, Table 54B) turn out when `Cc1cc(Nc2nccc(C)n2)cc(-c2cnc(C3(O)CCNC3)s2)c1` (stereo not drawn) [54B-12] was run?
Answer: < 100 nM

Question: For `Cc1cc(Nc2nccc(C(F)(F)F)n2)cc(-c2cnc(C3(O)CCCN(C(=O)CS(C)(=O)=O)CC3)s2)c1` (stereo not drawn) [Example 54D-83], which IC50 (rhSYK Activity, Table 54D) is on record?
Answer: < 100 nM

Question: `COc1nc(Nc2cc(C)cc(-c3cnc(C4(O)CCC(O)CC4)s3)c2)ncc1Cl` (stereo not drawn) [8A-5] was tested. Which IC50 (rhSYK Activity, Table 8A) did it give?
Answer: < 100 nM

Question: How did the IC50 [1] turn out when `Cc1cc(Nc2nccc(C(F)(F)F)n2)cc(-c2cnc(-c3cnn(CCO)c3)s2)c1` [Example 115, 2-{4-[5-(3-methyl-5-{[4-(trifluoromethyl)pyrimidin-2-yl]amino}phenyl)-1,3-thiazol-2-yl]-1H-pyrazol-1-yl}ethanol] was run?
Answer: < 100 nM

Question: For `Cc1cc(Nc2nccc(C(F)(F)F)n2)cc(-c2cnc(C3(O)CCCN(C(=O)c4n[nH]c(=O)[nH]4)CC3)s2)c1` (stereo not drawn) [Example 54D-62], which IC50 (rhSYK Activity, Table 54D) is on record?
Answer: < 100 nM

Question: `Cc1cc(Nc2nccc(C(F)(F)F)n2)cc(-c2cnc(C3(O)CC(C)C(C(=O)O)CC3C)s2)c1` (stereo not drawn) [Example 113B-12] was tested. Which IC50 (rhSYK Activity, Table 113B) did it give?
Answer: < 100 nM

Question: Which IC50 [1] does the source give for `Cc1cc(Nc2nccc(C(F)(F)F)n2)cc(-c2cnc(CNC(CO)C(C)O)s2)c1` (single isomer, unassigned) [Example 88A-43] here?
Answer: < 100 nM

Question: Which IC50 [1] does the source give for `Cc1cc(Nc2nccc(C(F)(F)F)n2)cc(-c2cnc(CNC(C)c3ccccn3)s2)c1` (stereo not drawn) [Example 88A-9] here?
Answer: < 100 nM

Question: `Cc1cc(Nc2nccc(C(F)(F)F)n2)cc(-c2cnc(C3(O)CCC(NC(=O)C(O)C(F)(F)F)CC3)s2)c1` (stereo not drawn) [Example 54E-30] was tested. Which IC50 (rhSYK Activity, Table 54E) did it give?
Answer: < 100 nM

Question: How did the IC50 (rhSYK Activity, Table 33-A) turn out when `CC(=O)NC1(C(=O)O)CCC(O)(c2ncc(-c3cc(C)cc(Nc4nccc(C(F)(F)F)n4)c3)s2)CC1` (stereo not drawn) [Example 33A-15] was run?
Answer: < 100 nM

Question: Which IC50 (Syk IC50, HTRF, recombinant human GST-SYK) does the source give for `Cc1cc(Nc2nccc(C(F)(F)F)n2)cc(-c2cnc(C(C)(O)c3ccc(C(=O)O)cc3)s2)c1` (stereo not drawn) [4-{1-hydroxy-1-[5-(3-methyl-5-{[4-(trifluoromethyl)pyrimidin-2-yl]amino}phenyl)-1,3-thiazol-2-yl]ethyl}benzoic acid] here?
Answer: < 0.5 nM

Question: Which IC50 (rhSYK Activity, Table 33D) does the source give for `Cc1cc(Nc2nccc(C(F)(F)F)n2)cc(-c2cnc(C(O)(CCCC(=O)O)c3ccncc3)s2)c1` (stereo not drawn) [Example 33D-25] here?
Answer: < 100 nM

Question: Which IC50 [1] does the source give for `CNS(=O)(=O)CCNCc1ncc(-c2cc(C)cc(Nc3nccc(C(F)(F)F)n3)c2)s1` [Example 88A-31] here?
Answer: < 100 nM

Question: How did the IC50 (rhSYK Activity, Table 54D) turn out when `C#Cc1ccc(C(=O)N2CCCC(O)(c3ncc(-c4cc(C)cc(Nc5nccc(C(F)(F)F)n5)c4)s3)CC2)cc1` (stereo not drawn) [Example 54D-99] was run?
Answer: < 100 nM

Question: With `CCc1ccnc(Nc2cc(C)cc(-c3cnc([C@@]4(O)CC[C@H](C(=O)O)C(C)(C)C4)s3)c2)n1` [Example 113A-49] as the molecule, how does the IC50 (rhSYK Activity, Table 113A) read?
Answer: < 100 nM

Question: How did the IC50 [1] turn out when `Cc1cc(Nc2nccc(OC3CCOC3)n2)cc(-c2cnc(C3(O)CCC3)s2)c1` (stereo not drawn) [Example 94A-29] was run?
Answer: < 100 nM

Question: How did the IC50 [1] turn out when `CCN(Cc1ncc(-c2cc(C)cc(Nc3nccc(C(F)(F)F)n3)c2)s1)C1CS(=O)(=O)CC1O` (stereo not drawn) [Example 88A-58] was run?
Answer: < 100 nM

Question: How did the IC50 (rhSYK Activity, Table 108A) turn out when `Cc1cc(Nc2nccc([S+](C)[O-])n2)cc(-c2cnc(C3(O)CCC3)s2)c1` (stereo not drawn) [Example 108A-38] was run?
Answer: < 100 nM

Question: With `Cc1cc(Nc2nccc(C(F)(F)F)n2)cc(-c2cnc(C(=O)NCCC(=O)O)s2)c1` [Example 87A-35] as the molecule, how does the IC50 [1] read?
Answer: < 100 nM

Question: How did the IC50 (rhSYK Activity, Table 113A) turn out when `COC(=O)C1CCC(O)(c2ncc(-c3cc(C)cc(Nc4nccc(C)n4)c3)s2)CC1C` (stereo not drawn) [Example 113A-13] was run?
Answer: 100 to 1000 nM

Question: For `COC(=O)C(C)(C)OCC(C)(O)c1ncc(-c2cc(C)cc(Nc3nccc(C(F)(F)F)n3)c2)s1` (stereo not drawn) [Example 33D-8], which IC50 (rhSYK Activity, Table 33D) is on record?
Answer: < 100 nM

Question: With `Cc1cc(Nc2nccc(OC3CCC3)n2)cc(-c2cnc(C3(O)CCC3)s2)c1` [Example 94A-30] as the molecule, how does the IC50 [1] read?
Answer: < 100 nM
